Structures are written as SMILES. A value given as a limit tells only on which side of the number the result lay.

The assay addresses T1, Squalene synthase (Rattus norvegicus) (UniProt Q02769).
T1 sequence (whole entry): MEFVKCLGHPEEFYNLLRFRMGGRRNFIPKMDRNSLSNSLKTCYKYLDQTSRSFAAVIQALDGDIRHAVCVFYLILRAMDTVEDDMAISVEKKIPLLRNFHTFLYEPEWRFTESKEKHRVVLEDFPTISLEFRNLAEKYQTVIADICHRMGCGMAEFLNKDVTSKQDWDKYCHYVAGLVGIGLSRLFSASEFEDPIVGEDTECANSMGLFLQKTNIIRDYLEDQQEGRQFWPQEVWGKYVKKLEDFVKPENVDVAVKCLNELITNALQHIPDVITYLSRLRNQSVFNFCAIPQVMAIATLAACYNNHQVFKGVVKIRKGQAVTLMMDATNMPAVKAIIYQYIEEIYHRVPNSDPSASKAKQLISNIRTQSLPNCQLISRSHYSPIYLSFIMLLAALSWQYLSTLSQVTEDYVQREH
As to the kind of experiment: Inhibitory activity against squalene synthase in rat liver squalene synthase (RLSS) enzyme assay.
In turn, `CC(=O)O[C@H](CCCOC(=O)C[C@@H](OC(=O)CCCCCCCCCCOc1ccccc1)C(=O)N1CCC[C@H]1C(=O)O)[C@H](C)Cc1ccccc1` returned an Activity of more than 3000 nM.

For the compound `CC(=O)O[C@H](CCCOC(=O)C[C@@H](OC(=O)CCCCCCCCCCOc1ccccc1)C(=O)OC(C(=O)O)C(=O)O)[C@H](C)Cc1ccccc1`, the Activity turned out to be 200 nM.

With `C=C(CCC12OC(C(=O)O)C(O)(C(=O)O)C(C(=O)O)(O1)[C@H](OC(=O)/C=C/[C@@H](C)C[C@@H](C)CC)[C@H]2O)[C@@H](OC(C)=O)[C@H](C)Cc1ccccc1` (some centres not stated), the Activity turned out to be 0.35 nM.

In the case of `CC(=O)O[C@H](CCOC(=O)C[C@@H](OC(=O)CCCCCCCCCCOc1ccccc1)C(=O)O[C@H](CC(=O)O)C(=O)O)[C@H](C)Cc1ccccc1`, the Activity came out at 200 nM.

`CC(=O)O[C@H](CCCOC(=O)C(OC(=O)CCCCCCCCCCOc1ccccc1)C(=O)O[C@H](CC(=O)O)C(=O)O)[C@H](C)Cc1ccccc1` (some centres not stated): the Activity was more than 3000 nM.

`CC[C@H](C)C[C@H](C)/C=C/C(=O)O[C@H](CC(=O)OCCC[C@@H](OC(=O)C(F)(F)F)[C@H](C)Cc1ccccc1)C(=O)O[C@@H](C(=O)O)[C@@H](O)C(=O)O`: the Activity came out at 300 nM.

In turn, `CC[C@H](C)C[C@H](C)/C=C/C(=O)O[C@H](CC(=O)OCCC[C@@H](OC(C)=O)[C@H](C)Cc1ccccc1)C(=O)O[C@H](CC(=O)O)C(=O)O` yielded an Activity of 470 nM.

These data come from ChEMBL document CHEMBL1127923, “Design and synthesis of squalene synthase inhibitors - acylic mimics of the zaragazic acids” (Bioorg Med Chem Lett, 1994).
